According to ChEMBL document CHEMBL1201862, “PubChem BioAssay data set” (2004):
Active and inactive are the calls of the source.

Legend:
Vibrio harveyi [1] = experiment: Quorum Sensing, LuxS, LuxPQ Measured in Microorganism System Using Plate Reader - 2035-01_Inhibitor_DoseNoFile_DryPowder_Activity. [Related pubchem assays (depositor defined):AID2106]; format: functional, organism-based
Vibrio harveyi [2] = experiment: inhibitors of AI-2 quorum sensing in V. harveyi, dose response, LuxS, LuxPQ, dry powder, set 2 (AID 493072); format: functional, organism-based
T-cell = experiment: inhibitors of CD8+ T cell–vesicle binding, dose response, mouse 2C CD8+ T cells, flow cytometry (AID 485284); format: functional
[3] = biological target: DNA damage-inducible transcript 3 protein (Mus musculus, UniProt P35639); format: functional, Cricetulus griseus
Leucine aminopeptidase = biological target: T1, Leucine aminopeptidase (Plasmodium falciparum 3D7, UniProt Q8IL11); experiment: P. falciparum M17LAP inhibitors, primary screen, biochemical, fluorogenic H-Leu-NHMec substrate, 1536-well (AID 1619); format: functional
T1 sequence (Q8IL11 whole entry): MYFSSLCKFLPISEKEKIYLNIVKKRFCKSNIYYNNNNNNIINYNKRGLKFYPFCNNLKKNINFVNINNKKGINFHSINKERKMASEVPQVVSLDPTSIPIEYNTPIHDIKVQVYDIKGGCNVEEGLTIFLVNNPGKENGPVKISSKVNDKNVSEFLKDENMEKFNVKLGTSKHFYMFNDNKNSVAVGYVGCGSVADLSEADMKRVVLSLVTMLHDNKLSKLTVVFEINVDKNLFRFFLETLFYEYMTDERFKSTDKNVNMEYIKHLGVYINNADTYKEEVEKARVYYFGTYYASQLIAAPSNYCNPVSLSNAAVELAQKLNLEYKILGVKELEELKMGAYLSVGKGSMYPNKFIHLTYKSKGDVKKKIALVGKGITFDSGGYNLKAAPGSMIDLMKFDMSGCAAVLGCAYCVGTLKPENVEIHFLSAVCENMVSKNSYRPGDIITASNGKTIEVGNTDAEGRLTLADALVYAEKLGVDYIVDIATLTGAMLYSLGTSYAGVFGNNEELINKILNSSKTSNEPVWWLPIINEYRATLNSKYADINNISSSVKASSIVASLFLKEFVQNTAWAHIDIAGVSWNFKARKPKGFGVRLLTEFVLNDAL

[4] = Intein inhibitors as potential Tuberculosis drugs, a cytotoxicity screen. [Related pubchem assays (depositor defined):AID2221, AID2223, AID434968, AID435010, AID449749, AID449750, AID489010]; format: functional
[5] = biological target: T2, Replicative DNA helicase DnaB (Mycobacterium tuberculosis, UniProt P9WMR3); experiment: DnaB intein splicing inhibitors, dose response, biochemical, cell-free fluorescence (AID 449749); format: functional
T2 sequence (P9WMR3 whole entry): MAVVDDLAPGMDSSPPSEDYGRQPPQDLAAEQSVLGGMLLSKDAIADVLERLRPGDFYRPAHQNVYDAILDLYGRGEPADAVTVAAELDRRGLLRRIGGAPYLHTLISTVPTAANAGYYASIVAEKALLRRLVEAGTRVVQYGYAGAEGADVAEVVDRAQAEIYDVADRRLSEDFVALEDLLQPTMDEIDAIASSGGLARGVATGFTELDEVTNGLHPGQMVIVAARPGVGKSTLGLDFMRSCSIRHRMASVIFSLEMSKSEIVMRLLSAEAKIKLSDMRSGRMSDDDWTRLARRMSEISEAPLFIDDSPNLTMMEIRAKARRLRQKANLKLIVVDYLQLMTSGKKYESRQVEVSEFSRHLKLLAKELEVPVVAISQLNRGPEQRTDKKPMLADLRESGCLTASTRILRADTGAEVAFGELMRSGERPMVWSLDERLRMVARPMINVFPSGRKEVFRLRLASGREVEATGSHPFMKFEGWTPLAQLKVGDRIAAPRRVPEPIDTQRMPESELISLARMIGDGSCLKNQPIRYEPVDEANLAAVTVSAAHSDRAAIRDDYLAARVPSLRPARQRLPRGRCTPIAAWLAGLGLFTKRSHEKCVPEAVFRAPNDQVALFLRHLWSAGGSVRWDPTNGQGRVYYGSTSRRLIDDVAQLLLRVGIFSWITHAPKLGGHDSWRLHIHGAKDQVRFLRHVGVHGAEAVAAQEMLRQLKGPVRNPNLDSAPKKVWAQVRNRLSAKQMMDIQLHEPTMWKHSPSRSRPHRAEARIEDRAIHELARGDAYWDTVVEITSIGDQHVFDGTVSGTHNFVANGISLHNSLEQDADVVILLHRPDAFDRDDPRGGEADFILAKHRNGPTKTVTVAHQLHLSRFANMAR

Protein RecA = biological target: T3, Protein RecA (Mycobacterium tuberculosis, UniProt P9WHJ3); experiment: Fluorescence Cell-Free Homogeneous Dose Retest to Identify Inhibitors of RecA-Intein Splicing Activity. [Related pubchem assays (depositor defined):AID2097, AID2223, AID489010, AID492950]; format: functional
T3 sequence (P9WHJ3 whole entry): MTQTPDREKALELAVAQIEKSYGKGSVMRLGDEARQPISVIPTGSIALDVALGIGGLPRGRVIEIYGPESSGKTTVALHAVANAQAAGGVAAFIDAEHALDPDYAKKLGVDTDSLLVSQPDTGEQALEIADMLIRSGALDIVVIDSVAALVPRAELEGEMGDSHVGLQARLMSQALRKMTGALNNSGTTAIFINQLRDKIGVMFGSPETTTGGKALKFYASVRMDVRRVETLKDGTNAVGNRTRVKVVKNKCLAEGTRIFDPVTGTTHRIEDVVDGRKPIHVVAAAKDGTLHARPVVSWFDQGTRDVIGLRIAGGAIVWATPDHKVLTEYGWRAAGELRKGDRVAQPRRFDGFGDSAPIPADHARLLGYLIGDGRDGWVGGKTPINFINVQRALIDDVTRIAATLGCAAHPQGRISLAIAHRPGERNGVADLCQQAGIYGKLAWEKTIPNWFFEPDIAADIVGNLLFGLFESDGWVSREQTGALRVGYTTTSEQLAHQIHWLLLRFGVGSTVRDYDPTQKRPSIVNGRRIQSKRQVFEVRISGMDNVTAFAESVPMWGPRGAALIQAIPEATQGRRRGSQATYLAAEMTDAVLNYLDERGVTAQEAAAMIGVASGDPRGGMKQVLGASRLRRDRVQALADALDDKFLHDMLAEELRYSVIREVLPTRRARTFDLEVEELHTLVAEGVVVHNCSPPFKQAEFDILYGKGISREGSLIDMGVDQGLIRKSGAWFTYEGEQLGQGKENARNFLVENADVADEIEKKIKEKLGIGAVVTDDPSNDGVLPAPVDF

[6] = system: Streptococcus sp. 'group A'; experiment: growth inhibition of control SK(-) GAS strain, dose response, counter-screen for streptokinase expression inhibitor project, luminescence, kanamycin, BacTiterGlo, confirmation (AID 1900); format: functional, organism-based
Streptokinase A = biological target: T4, Streptokinase A (Streptococcus pyogenes serotype M1, UniProt P10520); experiment: S. pyogenes streptokinase expression inhibitors, potency, dose response, plasminogen activation absorbance, OD405 (AID 1914); format: functional, Streptococcus pyogenes M1 GAS;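 also: secreted streptokinase activity via plasminogen activation per viability signal from cell pellet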
T4 sequence (P10520 whole entry): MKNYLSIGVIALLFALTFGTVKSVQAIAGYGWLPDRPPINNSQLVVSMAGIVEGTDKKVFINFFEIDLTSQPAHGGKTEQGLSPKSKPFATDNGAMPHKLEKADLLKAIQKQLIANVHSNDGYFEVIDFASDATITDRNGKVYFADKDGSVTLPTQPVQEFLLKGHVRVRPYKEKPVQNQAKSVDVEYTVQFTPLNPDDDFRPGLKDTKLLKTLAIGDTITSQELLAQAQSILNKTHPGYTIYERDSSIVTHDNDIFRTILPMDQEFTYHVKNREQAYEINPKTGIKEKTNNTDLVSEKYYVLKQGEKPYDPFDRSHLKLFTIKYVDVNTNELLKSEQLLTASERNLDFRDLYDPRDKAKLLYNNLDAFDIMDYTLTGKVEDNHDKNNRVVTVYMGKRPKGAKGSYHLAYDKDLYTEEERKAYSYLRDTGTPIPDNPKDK

Streptococcus = experiment: Group A Streptococcus viability loss, dose response, counter-screen for streptokinase expression inhibitor project, luminescence, BacTiterGlo (AID 1915); format: functional, organism-based;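 also: potency for reduction of bacterial viability or growth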
[7] = biological target: T5, Type-1 angiotensin II receptor (Homo sapiens, UniProt P30556); experiment: AT1 receptor agonists, dose response, selectivity assay for APJ receptor agonist project, cell-based, uHTS hits (AID 488865); format: functional;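 also: beta-arrestin recruitment to AT1 measured by enzyme fragment complementation luminescence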
T5 sequence (P30556 whole entry): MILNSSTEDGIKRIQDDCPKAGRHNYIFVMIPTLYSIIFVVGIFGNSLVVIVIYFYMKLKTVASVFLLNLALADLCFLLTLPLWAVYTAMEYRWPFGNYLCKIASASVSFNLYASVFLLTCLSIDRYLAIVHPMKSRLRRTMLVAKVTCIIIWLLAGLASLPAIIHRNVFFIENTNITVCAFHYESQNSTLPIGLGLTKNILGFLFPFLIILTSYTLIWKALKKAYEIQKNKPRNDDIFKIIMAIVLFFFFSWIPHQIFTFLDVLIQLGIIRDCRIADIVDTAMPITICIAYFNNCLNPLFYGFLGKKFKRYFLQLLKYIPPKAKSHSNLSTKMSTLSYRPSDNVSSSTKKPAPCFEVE

INS1 = experiment: beta cell apoptosis inhibitors, cytokine rescue, dose response, luminescence, retest (AID 449756); format: functional, cell-based; settings: Rattus norvegicus;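 also: cell death triggered by IL-1 beta plus TNF-alpha plus IFN-gamma mixture; protective hits raise ATP signal compared with cytokine alone wells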
[8] = A549 cell cytotoxicity, dose response, cytotoxicity control, plate reader, cherry-pick, antagonist series (AID 743412); format: functional, cell-based
[9] = HepG2 cell cytotoxicity, dose response, cytotoxicity control, plate reader, cherry-pick, antagonist series (AID 743416); format: functional, cell-based
[10] = LGR2 antagonists, dose response, cell-based, HEK293, CRE-luciferase reporter, cherry pick, set 2 (AID 743343); format: functional;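 also: transfected cells were stimulated with diluted bursicon conditioned medium after compound addition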
[11] = MC4R antagonists, dose response, counter-screen for LGR2 antagonist project, cell-based, plate reader, cherry pick (AID 743444); format: functional;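 also: transfected HEK 293 cells stimulated with alpha-MSH peptide; potency of inhibitors of the alpha-MSH evoked signal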
[12] = HEK293 cell cytotoxicity, dose response, cytotoxicity control, plate reader, cherry-picked samples (AID 743446); format: functional, cell-based
Cannabinoid receptor 2 [13] = biological target: T6, Cannabinoid receptor 2 (Homo sapiens, UniProt P34972); experiment: SAR analysis of antagonists of the Cannabinoid Receptor 2 using an Image-Based Assay - Set 2. [Related pubchem assays (depositor defined):AID1961, AID1965]; format: functional
[14] = biological target: G-protein coupled receptor 55 (Homo sapiens, UniProt Q9Y2T6); experiment: SAR analysis of selective Agonists of GPR55 using an Image-Based Assay - Set 2. [Related pubchem assays (depositor defined):AID1961, AID1965]; format: functional
Cannabinoid receptor 2 [15] = biological target: T6, Cannabinoid receptor 2; experiment: SAR analysis of agonists of the Cannabinoid Receptor 2 using an Image-Based Assay - Set 2. [Related pubchem assays (depositor defined):AID1961, AID1965]; format: functional
[16] = biological target: T7, G-protein coupled receptor 35 (Homo sapiens, UniProt Q9HC97); experiment: SAR analysis of Agonists of the GPR35 Receptor using an Image-Based Assay - Set 3. [Related pubchem assays (depositor defined):AID1961, AID1965]; format: functional
Cannabinoid receptor 1 [17] = biological target: T8, Cannabinoid receptor 1 (Homo sapiens, UniProt P21554); experiment: SAR analysis of antagonists of the Cannabinoid Receptor 1 using an Image-Based Assay - Set 3. [Related pubchem assays (depositor defined):AID1961, AID1965]; format: functional
Cannabinoid receptor 1 [18] = biological target: T8, Cannabinoid receptor 1; experiment: SAR analysis of agonists of the Cannabinoid Receptor 1 using an Image-Based Assay - Set 3. [Related pubchem assays (depositor defined):AID1961, AID1965]; format: functional
[19] = biological target: T7, G-protein coupled receptor 35; experiment: SAR analysis of Antagonists of the GPR35 Receptor using an Image-Based Assay - Set 4. [Related pubchem assays (depositor defined):[…]]; format: functional
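For CC50 in this document: cells exposed to compound for 72 hours before luminescence readout.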

T7 sequence (Q9HC97 whole entry): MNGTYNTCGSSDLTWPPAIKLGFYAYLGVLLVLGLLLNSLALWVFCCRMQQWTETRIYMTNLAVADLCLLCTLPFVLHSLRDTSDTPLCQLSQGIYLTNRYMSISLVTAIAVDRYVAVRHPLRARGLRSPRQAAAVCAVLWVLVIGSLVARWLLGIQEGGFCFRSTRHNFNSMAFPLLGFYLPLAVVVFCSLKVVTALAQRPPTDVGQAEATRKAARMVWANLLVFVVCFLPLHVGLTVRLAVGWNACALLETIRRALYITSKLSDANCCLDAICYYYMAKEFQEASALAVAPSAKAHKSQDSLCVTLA
T6 sequence (P34972 whole entry): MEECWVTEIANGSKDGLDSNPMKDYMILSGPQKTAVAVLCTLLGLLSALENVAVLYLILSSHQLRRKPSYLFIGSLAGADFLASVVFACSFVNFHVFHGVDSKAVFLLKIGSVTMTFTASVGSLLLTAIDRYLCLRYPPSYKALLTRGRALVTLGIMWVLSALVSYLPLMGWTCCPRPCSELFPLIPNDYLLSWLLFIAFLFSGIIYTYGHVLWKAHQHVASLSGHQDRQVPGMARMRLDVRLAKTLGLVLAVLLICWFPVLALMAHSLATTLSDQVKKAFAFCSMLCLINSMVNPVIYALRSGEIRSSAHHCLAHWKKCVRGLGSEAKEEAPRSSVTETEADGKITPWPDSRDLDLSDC
T8 sequence (P21554 whole entry): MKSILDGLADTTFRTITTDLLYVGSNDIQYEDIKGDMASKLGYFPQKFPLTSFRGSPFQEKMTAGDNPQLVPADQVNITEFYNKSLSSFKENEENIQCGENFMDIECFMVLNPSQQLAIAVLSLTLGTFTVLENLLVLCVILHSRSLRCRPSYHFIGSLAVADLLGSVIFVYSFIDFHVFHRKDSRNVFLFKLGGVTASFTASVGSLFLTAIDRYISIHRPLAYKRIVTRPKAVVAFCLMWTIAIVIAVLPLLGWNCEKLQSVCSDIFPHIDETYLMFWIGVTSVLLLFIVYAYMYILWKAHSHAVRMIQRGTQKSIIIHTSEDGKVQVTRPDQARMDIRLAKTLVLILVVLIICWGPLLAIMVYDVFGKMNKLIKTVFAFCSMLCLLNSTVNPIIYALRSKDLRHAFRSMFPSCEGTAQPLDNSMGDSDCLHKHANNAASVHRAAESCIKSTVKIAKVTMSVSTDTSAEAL
Chain of G-protein coupled receptor 55 (Q9Y2T6 whole entry): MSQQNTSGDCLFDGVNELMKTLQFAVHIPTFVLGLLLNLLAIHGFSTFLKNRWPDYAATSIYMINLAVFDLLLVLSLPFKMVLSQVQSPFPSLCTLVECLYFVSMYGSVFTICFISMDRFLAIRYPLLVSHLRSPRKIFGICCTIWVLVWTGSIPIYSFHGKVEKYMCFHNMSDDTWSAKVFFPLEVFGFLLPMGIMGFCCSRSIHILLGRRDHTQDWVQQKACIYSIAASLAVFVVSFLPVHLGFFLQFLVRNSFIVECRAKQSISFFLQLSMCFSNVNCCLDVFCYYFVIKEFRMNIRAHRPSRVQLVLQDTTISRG
Chain of DNA damage-inducible transcript 3 protein (P35639 whole entry): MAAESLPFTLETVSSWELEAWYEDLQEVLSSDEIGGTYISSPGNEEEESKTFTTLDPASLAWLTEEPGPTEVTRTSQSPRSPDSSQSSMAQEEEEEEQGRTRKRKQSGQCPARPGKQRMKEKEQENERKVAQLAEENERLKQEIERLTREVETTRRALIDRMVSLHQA

O=C1C=C/C(=C/Br)O1
active: AC50 (Vibrio harveyi [1]) 4.81 µM | AC50 (Vibrio harveyi [2]) 3.1 µM

CN(Cc1ccccc1)C(=O)c1ccc(NC(=O)Cc2cccc(NC(=O)C3CCCN(C(=O)C4CCC4)C3)c2)cc1 (stereo not given)
active: EC50 (T-cell) 5.41 µM

O=C(Cc1csc(Nc2nc(S)nc3ccccc23)n1)NCCCN1CCN(c2ccccc2F)CC1
10 µM: Absolute IC50 (CHOP) [3]

N#CC1=C(N)Oc2[nH]nc(-c3ccccc3)c2C1c1ccsc1 (stereo not given)
active: IC50 (Leucine aminopeptidase) 64.5 µM | CC50 [4] > 40 µM | AC50 [5] 0.142 µM | EC50 (Protein RecA) 0.731 µM

CCCCNc1c(-c2cccc(-c3ccc(OC)cc3)c2)nc2ccc(C)cn12
active: EC50 [6] 4.54 µM | EC50 (Streptokinase A) 7.94 µM | EC50 (Streptococcus) 13.3 µM | AC50 (INS1) 7.86 µM | AC50 [8] 28.7 µM | AC50 [9] 28.4 µM | AC50 [10] 10.7 µM | AC50 [11] 11 µM | AC50 [12] 29.6 µM
inactive: EC50 [7] > 100 µM

COc1ccc(-c2csc(NC(=O)CSc3nnc4c(C)cc5cc6c(cc5n34)OCCO6)n2)cc1
inactive: IC50 (Cannabinoid receptor 2 [13]) > 32 µM | EC50 [14] > 32 µM | EC50 (Cannabinoid receptor 2 [15]) > 32 µM | EC50 [16] > 32 µM | IC50 (Cannabinoid receptor 1 [17]) > 32 µM | EC50 (Cannabinoid receptor 1 [18]) > 32 µM | IC50 [19] > 32 µM
